Tests used:
male dd-strain mice = experiment: Acute toxicity in mice (LD50); format: in vivo; conditions: 10080 min
Protocol: (§1) Compound (I) was administered orally or intraperitoneally to groups of 8 male Wistar rats weighing about 200 g. After one week, acute toxicity (LD50 value) was determined by Probit method.
LD50 values of Compound (I) in groups of 10 male dd-strain mice weighing 20-25 g were also determined.

[1] = tested on: thymus-rossete forming cells (RFC); experiment: Stimulative effect on immune response: thymus rosette forming cells after sheep red blood cell immunization; format: in vivo, C57BL/6 mice; conditions: for Ratio (%) of RFC (mean ± standard error): C57BL/6 mice, control 1.06±0.31; for % increase: RFC ratio vs control
Protocol: (§2) Six week-old female C57BL/6 mice were immunized with the intraperitoneal administration of 5 x 10^8 sheep red blood cells. […] On the 4th day after immunization, the numbers of thymus-rossete forming cells (RFC) in mice were assessed by the method of Bach et al [Cellular Immunology, vol. 3, p. […] Viable thymus lymphocytes which attached to four or more sheep red blood cells were determined as RFC. In control group, 0.5% methylcellulose solution was orally administered into mice.

[2] = tested on: natural thymotoxic autoantibody; experiment: Inhibitory effect on the production of autoantibody (NTA); format: in vivo, NZB/W F1 mice; conditions: 30 mg/kg orally three times every week
Protocol: To 4 week-old female NZB/W F, mice was orally administered Compound (I) three times every week and, at 7 week-old mice blood was gathered from the eyegrounds and the serum was separated. The detection of natural thymotoxic autoantibody (hereinafter referred to as NTA) was performed by the method of Takeichi et al [Cellular Immunology, vol. 60, p. 181 (1981)].

MeHSA-induced DTH [3] = experiment: Immunosuppressive effect: MeHSA-induced DTH in higher responder strain; format: in vivo, BALB/c mice; conditions: for DTH (mm) (mean ± standard error): BALB/c mice, control 0.96±0.09; for % inhibition: DTH vs control
Protocol: (§3) Eight week-old female C57BL/6 mice were injected subcutaneously in the back with 0.1 ml of a 0.25% methylated human serum albumin (hereinafter referred to as MeHSA). Compound (I) was administered orally for 4 consecutive days from the day of the sensitization. One hour after the last administration of Compound (I), 0.025 ml of a 0.1% MeHSA solution was injected subcutaneously on the left hind^paw. The thickness of footpad was measured the 24 hours after the injection using a dissecting microscope by the method of Baba et al [Acta Pathology Japan, vol. 27, p. 165 (1977)]. The difference between the thickness of footpad before and after the injection of MeHSA was expressed as the delayed type hypersensitivity (hereinafter referred to as DTH).
Effect of Compound (I) on the MeHSA-induced DTH was examined in 10 week-old female BALB/c mice, higher responder strain to the MeHSA-induced DTH, by the same procedures as described in Experiment 5.

MeHSA-induced DTH [4] = experiment: Stimulative effect on cell-mediated immunity: MeHSA-induced delayed type hypersensitivity, footpad thickness; format: in vivo, C57BL/6 mice; conditions: for DTH (mm) (mean ± standard error): C57BL/6 mice, control 0.21±0.02; for % increase: DTH vs control
Protocol: as §3

male Wistar rats = experiment: Acute toxicity in rats (LD50, Probit method); format: in vivo; conditions: after one week, 10080 min
Protocol: as §1

[5] = tested on: thymus-rossete forming cells (RFC); experiment: Restorative effect on reduced immune response: thymus RFC in cyclophosphamide-pretreated mice; format: in vivo, BALB/c mice; conditions: for Ratio (%) of RFC (mean ± standard error): BALB/c mice; for % decrease: RFC ratio vs control
Protocol: as §2
The same procedures as shown in Experiment 1 were performed except that six week-old female BALB/c mice were immunized with 5 x 10^8 sheep red blood cells and 20 mg/kg cyclophosphamide was orally administered to mice the day before and on immunization.

peritoneal macrophages = experiment: Stimulative effect on phagocytosis of macrophages; format: cell-based, rats; conditions: rat peritoneal macrophages
Protocol: (§4) Effect of Compound (I) on phagocytosis was examined using rat peritoneal leukocytes according to the method of Stossel et al described in Journal of Clinical Investigation, vol. 51, p. 615 (1972).
Casein sodium was injected intraperitoneally into rats. Three days later, peritoneal macrophages were harvested. Phagocytosis was assessed by the same procedures as shown in Experiment 3.

[6] = tested on: spontaneous rosette forming cells; experiment: Stimulative effect on reduced cell-mediated immunity: spontaneous rosette forming cells in thymus of SHR; format: in vivo, spontaneous hypertensive rats; conditions: for Ratio (%) of S-RFC (mean ± standard error): SHR, control 46.7±2.9; for % increase: S-RFC ratio vs control
Protocol: Twenty-four hours after the last administration, thymus was removed and cell suspension was prepared. The numbers of spontaneous rosette forming cells (hereinafter referred to as S-RFC) were measured the method of Takeichi and Boone [Cellular Immunology, vol. 27, p.

[7] = tested on: rat peritoneal leukocytes; experiment: Stimulative effect on phagocytosis of leukocytes; format: cell-based
Description: as §4

## CCN(CC)CCN1CCC2(CC1)SCC(=O)N2c1ccccc1.Cl.Cl.O [Compound (I), 8-(2-diethylaminoethyl)-3-oxo-4-phenyl-l-thia-4,8-diazaspiro-[4.5]decane dihydrochloride monohydrate]
Male dd-strain mice; intraperitoneal
  LD50: 474 mg/kg
Male dd-strain mice; oral
  LD50: 1,841 mg/kg
[1]; 3 mg/kg orally for 4 days
  Ratio (%) of RFC (mean ± standard error): 5.33±0.99 %
[1]; 30 mg/kg orally for 4 days
  Ratio (%) of RFC (mean ± standard error): 6.28±1.27 %
[1]; 3 mg/kg orally
  % increase: 403%
[1]; 30 mg/kg orally
  % increase: 492%
[2]; dilution of serum 64, control 28.0±0.8
  NTA (%) (mean ± standard error): 9.5±0.6 %
[2]; dilution of serum 128, control 20.3±1.1
  NTA (%) (mean ± standard error): 8.7±0.5 %
MeHSA-induced DTH [3]; 3 mg/kg orally
  DTH (mm) (mean ± standard error): 0.91±0.04 mm
  % inhibition: 5%
MeHSA-induced DTH [3]; 30 mg/kg orally
  DTH (mm) (mean ± standard error): 0.77±0.03 mm
  % inhibition: 20%
MeHSA-induced DTH [3]; 300 mg/kg orally
  DTH (mm) (mean ± standard error): 0.71±0.04 mm
  % inhibition: 36%
MeHSA-induced DTH [4]; 10 mg/kg orally for 4 days
  DTH (mm) (mean ± standard error): 0.22±0.02 mm
MeHSA-induced DTH [4]; 100 mg/kg orally for 4 days
  DTH (mm) (mean ± standard error): 0.42±0.03 mm
MeHSA-induced DTH [4]; 300 mg/kg orally for 4 days
  DTH (mm) (mean ± standard error): 0.33±0.03 mm
MeHSA-induced DTH [4]; 10 mg/kg orally
  % increase: 5%
MeHSA-induced DTH [4]; 100 mg/kg orally
  % increase: 100%
MeHSA-induced DTH [4]; 300 mg/kg orally
  % increase: 57%
Male Wistar rats; intraperitoneal
  LD50: 827 mg/kg
Male Wistar rats; oral
  LD50: >8,000 mg/kg
[5]; Compound (I) 10 mg/kg orally with cyclophosphamide 20 mg/kg
  Ratio (%) of RFC (mean ± standard error): 1.78±0.80%
[5]; Compound (I) 30 mg/kg orally with cyclophosphamide 20 mg/kg
  Ratio (%) of RFC (mean ± standard error): 3.86±0.52 %
[5]; Compound (I) 100 mg/kg orally with cyclophosphamide 20 mg/kg
  Ratio (%) of RFC (mean ± standard error): 5.26±0.64 %
[5]; Compound (I) 10 mg/kg with cyclophosphamide 20 mg/kg
  % decrease: 74%
[5]; Compound (I) 30 mg/kg with cyclophosphamide 20 mg/kg
  % decrease: 43%
[5]; Compound (I) 100 mg/kg with cyclophosphamide 20 mg/kg
  % decrease: 23%
Peritoneal macrophages; 10 µM
  % increase of phagocytosis: 12.5%
Peritoneal macrophages; 100 µM
  % increase of phagocytosis: 30.6%
[6]; 25 mg/kg orally for 20 days
  Ratio (%) of S-RFC (mean ± standard error): 55.0±5.2%
[6]; 100 mg/kg orally for 20 days
  Ratio (%) of S-RFC (mean ± standard error): 57.8±3.6 %
[6]; 25 mg/kg orally
  % increase: 18%
[6]; 100 mg/kg orally
  % increase: 24%
[7]; 10 μM
  % increase of phagocytosis: 27.1%
[7]; 100 μM
  % increase of phagocytosis: 61.4%

## O=P1(N(CCCl)CCCl)NCCCO1 (stereo not drawn) [Cyclophosphamide, cyclophosphamide, reference compound]
[5]; cyclophosphamide 20 mg/kg alone
  % decrease: 79%
[5]; cyclophosphamide 20 mg/kg alone, listed as cyclophosphamide
  % decrease: about 79%
[5]; cyclophosphamide 20 mg/kg orally alone, control 6.81±1.38
  Ratio (%) of RFC (mean ± standard error): 1.14±0.63%
